From patent US20250339445A1, “Modulators of Orphan Nuclear Receptors for Treating Pancreatitis, Glioblastoma, Sarcopenia and Stroke” (Emory University, priority 2020, published 2025) come the findings set out here.

Data set [1] in a line: Cellular toxicity assay, Huh-7 cells. The class given is cell-based. The following applies: human, compared to cycloheximide (+ control). The protocol: The toxicity of the compounds was assessed in human PBM, CEM (human lymphoblastoid), and Huh-7 cells, as described previously (see Schinazi R. F., Sommadossi J.-P., Saalmann V., Cannon D. L., Xie M.-Y., Hart G. C., Smith G. A. & Hahn E. F. Antimicrob. Agents Chemother. 1990, 34, 1061-67). Cycloheximide was included as positive cytotoxic control, and untreated cells exposed to solvent were included as negative controls. The cytotoxicity IC50 was obtained from the concentration-response curve using the median effective method described previously (see Chou T.-C. & Talalay P. Adv. Enzyme Regul. 1984, 22, 27-55; Belen'kii M. S. & Schinazi R. F. Antiviral Res. 1994, 25, 1-11).

The next data set deals with Huh7 cells. Kind of data set: LDH release from Huh7 cells. The class given is cell-based, human. The conditions noted are these: Huh7, 16 h exposure.
The subject of data set [2] is high-fat-fed C57BL/6 mice. The data set is described as follows: High-fat-diet-fed C57BL/6 mice treated with Compound 1 and/or antagomiR-122. It counts as in vivo. The protocol: C57BL/6 mice were fed a 50% high fat diet (HFD) for four weeks. The control cohort received three hydrodynamic tail vein injections of a 5 μg antagomiR-control and six i.p injections of saline over three weeks. A second cohort was hydrodynamic tail vein injected with 5 μg antagomiR-122 (the reverse complement that inhibits activity of miR-122) three times and i.p injections of saline six times over three weeks. A third cohort was injected i.p. with Compound 1 (7.5 mg/kg) twice a week plus antagomiR-control once a week over the course of 3 weeks. The final cohort was injected i.p. with Compound 1 (7.5 mg/kg) twice a week plus antagomiR-122 injections once a week over the course of 3 weeks.
Male C57BL/6J mice, 7 to 8 weeks old, were housed randomly in standard cages and were fed a HFD, or atherogenic diet (consisting 1% Chol and 0.5% cholic acid, see also Table 6). All mice had free access to water during the experimental period. During the feeding period body weight was monitored every 3 days. In the HFD experiment, after 4 or 6 weeks, the resultant obese mice were treated with antagomiR-122 (5 μg/mouse once a week for 3 weeks), or i.p. injected with Compound 1 (RORα agonist, 7.5 mg/kg twice a week for 3 weeks; or 15 mg/kg 3 times a week for 3 weeks). The obese control (HFD) group was administered only saline with DMSO and antagomiR-control. After 3 weeks of treatment mice were sacrificed and livers were taken for RNA-seq analysis. Livers, white adipose, and skeletal muscle tissues were frozen in liquid nitrogen or in optimum cutting temperature embedded frozen blocks, for further RNA and histologic analysis. In the atherogenic diet experiment mice were treated with 15 mg/kg Compound 1 after 3 weeks with the diet. After 3.5 weeks of treatment, mice were sacrificed, and the livers were frozen in liquid nitrogen or in optimum cutting temperature embedded frozen blocks. Plasma was collected from atherogenic diet-fed mice and saved in −20° C. for ALT and AST analysis using the Reflotron® Analyzer and test-strips (Roche).
In the HFD experiment, after 4 or 6 weeks, the resultant obese mice were treated with antagoMIR122 (5 μg/mouse once a week for 3 weeks), or i.p. injected with Compound 1 (RORα agonist, 7.5 mg/kg twice a week for 3 weeks; or 15 mg/kg 3 times a week for 3 weeks). The obese control (HFD) group was administered only saline with DMSO and antagomiR-control.
Mice were fed with a 50% HFD and after 4 weeks, when fatty liver was already established, they were treated with Compound 1, antagoMIR122 or both compounds together for an additional 3 weeks. […] The weighing of mice began at week 3, one week before treatments were initiated. […] The liver weight of the mice was in accordance with their body weight.

The test system of the next data set is Sgp130FC mice. The data set is described as follows: Sgp130FC mice treated with Compound 1. It counts as in vivo. The conditions noted are these: 7.5 mg/kg ip twice/week, four weeks. The protocol:
Sgp130FC mice were injected (ip) with Compound 1 for four weeks (7.5 mg/kg, twice/week). FIGS. 6A-6B show the qRT-PCR analysis of miR-122 levels in plasma (6A), and in the livers (6B) after 4 weeks treatment with saline (as a control) and Compound 1. MicroRNA-18 was used as a negative control and its plasma and liver levels were not affected following treatment with Compound 1. The effect seen on this microRNA in FIG. 6A is not significant compared to the significant effect seen on miR-122.
Compound 1 and AntagomiR injections to mice. C57BL/6 male mice, 7-8 weeks old, or Sgp130FC, 9-month-old male mice, were injected i.p. with 7.5 mg/kg Compound 1 dissolved in saline and 3% DMSO. Saline was injected as control. Mice were hydrodynamic tail vain injected with antagomiR-122 or antagomiR-control (negative control) (5 μg/mouse in 1.5 ml saline). Mice were sacrificed according to the legend of the figure describing the experimental results and the livers, white adipose and skeletal muscle tissues were frozen in liquid nitrogen or in OCT embedded frozen blocks, for further RNA and histologic analysis. AntagomiRs were obtained from Sigma Aldrich, see Table 3.

Structures are written as SMILES. Entries after “also recorded” stand apart in the source; their conditions may differ.

A word on the CC50: it is the concentration giving 50% cytotoxicity. `O=C1Nc2cc(C(=O)N3CCC(Cc4ccccc4)CC3)ccc2Nc2ccccc21` [Compound 1] yielded a CC50 in data set [1] of 10.4 µM. In the data set on Huh7 cells, the “Toxicity to the cells as measured by LDH release” value is recorded as “no apparent toxicity”. Besides, in data set [2] (50% HFD, 7.5 mg/kg twice a week, 3 weeks), the “Hepatic lipid droplets and TG content” value is “reduced”. Moreover, in data set [2] (50% HFD, 3 weeks), the “Body weight, Compound 1 co-administered with antagomiR-122” value is reported as “returned exactly to that of control animals”. In data set [2] (50% HFD, 3 weeks of treatment), the “Dgat1 (MIR122 target gene) in the liver” value was “reduced”; the “Energy expenditure (β-hydroxybutyrate plasma level as surrogate marker)” value is recorded as “increases energy expenditure; also recorded: increase”; the “FGF21 (RORα target gene) in the liver” value is recorded as “increased”; the “MIR122 levels in plasma and muscle (secretion)” value is reported as “enhanced; also recorded: increase of MIR122”. In data set [2] (50% HFD, 3 weeks of treatment), the “Mature MIR122 level in the liver” value is reported as “no increase”; the “Muscle TG levels” value is on record as “reduced”; the “pri- and pre-MIR122 in the liver” value is reported as “increased significantly”. For the same compound, in data set [2] (50% HFD, Compound 1 7.5 mg/kg i.p. twice a week, antagomiR once a week, 3 weeks, 7.5 mg/kg), the Body weight result is “weight steadily decreased; also recorded: reduces body weight; also recorded: significant decrease in body weight”. In addition, the “Hepatic RORα level” value in data set [2] (HFD-fed mice) is recorded as “increased the RORα level to its level in mice fed normal diet”. Further, in the data set with Sgp130FC mice, the “Liver and muscle triglyceride levels” value was “reduces liver and muscle triglyceride levels”; the “MicroRNA-18 plasma and liver levels (negative control)” value is listed as “not affected”; the “miR-122 expression (plasma, liver)” value was “increases miR-122 expression”.
